Results taken from patent US8138170B2, “Immunosuppressive Ningalin compounds” (Memorial Sloan-Kettering Cancer Center, priority 2004, dated 2012).
“And” between values parts separate entries of the source, which are not always exact repeats. Equal entries are not always repeated. Where two headings read alike, the source gives them in different places.

How the values were obtained:
[1] = test system: P388/DX leukemic cells resistant to Adriamycin; details: for Log cell kill: calculated assuming doubling time 0.4 day
[2] = test system: carrageenan-induced paw edema; experiment: Carrageenan-induced paw edema; assay type: in vivo, B6D2F1 mice; details: for Pedis Area: individual mice 1-4; for Pedis Area, Mean: mean of 4 mice
Protocol: Carrageene (1%, 30 μl) was injected i.m. into the pedis of B6D2F1 mice (4 mice/group) to induced edemic inflammation at 0 hours. N3, N5 (i.p. injection) or oral administration of aspirin 500 mg/kg, or topical application of hydrocortisone cream (1%) or Lidex cream (0.05%) to the pedis skins were given at −1, 6, 12 and 24 hours. The control mice received dimethylsulfoxide (the vehicle of ningalins). The pedis areas (in mm^2) were measured at 0, 3, 6, 12, 24, 36 and 48 hours.

[3] = test system: P388/DX leukemic cells; assay type: in vivo, B6D2F1 mice; details: for Log cell kill: calculated assuming doubling time 0.4 day
[4] = test system: human lymphocytes; experiment: Inhibition of PHA-stimulated lymphocyte proliferation ([3H]thymidine incorporation); assay type: cell-based; details: for IC50: read-out: Immunosuppressive Effect (IC50 in μM) [B]
[5] = Cytotoxicity measured by cell proliferation inhibition; assay type: cell-based
[6] = test system: C57BL/6 heart allografts; experiment: Heterotopic heart transplantation in mice; assay type: in vivo, Balb/c mice
Protocol: Heterotopic heart transplantation was performed in rats and mice. In brief, heart transplantation was performed by previously described modified method. Hearts harvested from donors were perfused with chilled saline and immediately transplanted to recipients under full anesthesia. Suture 10-0 in rats and 12-0 in mice (Ethicon; Somerville, N.J.) was used to perform anastomosis of aorta to aorta and pulmonary artery to vena cava. Heartbeat was evaluated daily and the day of complete cessation was considered rejection. Animals that died within three days after transplantation were excluded from the analysis (less than 5%).
Mice were also transplanted with heart allografts. In particular, untreated Balb/c (H-2^d) recipients rejected C57BL/6 (H-2^b) heart allografts at a MST of 7.8±0.84 days (n=5). Treatment with 40 mg/kg N5, QDx7, extended heart allograft survival to 13.33±2.52 days, which increased life span 71% (n=3; p<0.03).
Mice heart allografts were treated with 20 mg/kg of N3, QDx7, i.p. In particular, untreated Balb/c (H-2^d) recipients rejected C57BL/6 ([…]) heart allografts at a MST of […] days (n=5). Treatment with 20 mg/kg of N3 (i.e., one-half of dose of N5) extended heart allograft survival to 18.75±3.86 days (n=4; p<0.0005), an increase in lifespan of 140%.

[7] = Adriamycin 3.0 mg/kg iv alone or with N3 20 mg/kg ip, QD × 3
[8] = N3 20 mg/kg ip and/or Adriamycin 1.5 mg/kg iv, QD × 3
[9] = 0 hr, aspirin 500 mg/kg oral, N3 100 mg/kg i.p., N5 50 mg/kg i.p., hydrocortisone cream 1%, Lidex cream 0.05% topical, given at −1, 6, 12, 24 hours
[10] = N3 20 mg/kg ip and/or Taxol 5.0 mg/kg iv, QD × 3
[11] = PHA-stimulated human lymphocyte proliferation
[12] = Taxol 10.0 mg/kg iv alone or with N3 20 mg/kg ip, QD × 3

SMILES | Lifespan increase (%) [1, 8] | Median survival time (days ± SD) [1, 8] | Pedis Area [2, 9] | Pedis Area, Mean ([2]; 0 hr, doses as E35) | Pedis Area ([2]; 3 hr, doses as E35) | Pedis Area, Mean ([2]; 3 hr, doses as E35) | Pedis Area ([2]; 6 hr, doses as E35) | Pedis Area, Mean ([2]; 6 hr, doses as E35) | Pedis Area ([2]; 12 hr, doses as E35) | Pedis Area, Mean ([2]; 12 hr, doses as E35) | Pedis Area ([2]; 24 hr, doses as E35) | Pedis Area, Mean ([2]; 24 hr, doses as E35) | Pedis Area ([2]; 36 hr, doses as E35) | Pedis Area, Mean ([2]; 36 hr, doses as E35) | Pedis Area ([2]; 48 hr, doses as E35) | Pedis Area, Mean ([2]; 48 hr, doses as E35) | Lifespan increase (%) [3, 10] | Median survival time (days ± SD) [3, 10] | IC50 [4, 11] | IC50 [5] | further results
COc1cccc2c1C(=O)c1c(O)c3c(c(O)c1C2=O)C[C@@](O)(C(=O)CO)C[C@@H]3O[C@H]1C[C@H](N)[C@H](O)[C@H](C)O1 [Adriamycin, Doxorubicin] | +7% | 11.25 ± 1.75 days |  |  |  |  |  |  |  |  |  |  |  |  |  |  |  |  |  |  | Log cell kill ([1]; Adriamycin 1.5 mg/kg iv alone or with N3 20 mg/kg ip): 0.56; Lifespan increase (%) [1, 7]: +15%; Lifespan increase (days) [1, 7]: +1.58 days; Median survival time (days ± SD) [1, 7]: 12.08 ± 1.81 days; Log cell kill ([1]; Adriamycin 3.0 mg/kg iv alone or with N3 20 mg/kg ip): 1.19; Lifespan increase (days) [1, 8]: +0.75 days
CC(=O)Oc1ccccc1C(=O)O [Aspirin, aspirin, reference compound] |  |  | 100 mm^2 | 100 mm^2 | 142.2 mm^2 and 130.5 mm^2 and 122 mm^2 and 134.5 mm^2 | 132.3 mm^2 | 151.4 mm^2 and 139.8 mm^2 and 124.6 mm^2 and 149.6 mm^2 | 141.4 mm^2 | 138.5 mm^2 and 135.6 mm^2 and 120.3 mm^2 and 138.9 mm^2 | 133.3 mm^2 | 116.5 mm^2 and 116.9 mm^2 and 108.5 mm^2 and 118.6 mm^2 | 115.1 mm^2 | 114.7 mm^2 and 107.6 mm^2 and 94.1 mm^2 and 109.7 mm^2 | 106.5 mm^2 | 118.3 mm^2 and 105.9 mm^2 and 92.4 mm^2 and 111.5 mm^2 | 107 mm^2 |  |  |  |  | 
COc1ccc(CCn2cc(-c3ccc(OC)c(OC)c3)c3c4cc(OC)c(OC)cc4oc(=O)c32)cc1OC [Ningalin N3, 1-(3,4-Dimethoxy-phenyl)-3-[2-(3,4-dimethoxy-phenyl)-ethyl]-7,8-dimethoxy-3H-5-oxa-3-aza-cyclopenta[α]naphthalen-4-one] | −12% | 9.25 ± 0.66 days | 100 mm^2 | 100 mm^2 | 134.4 mm^2 and 142.7 mm^2 and 141.7 mm^2 and 139.5 mm^2 | 139.6 mm^2 | 140.6 mm^2 and 159.2 mm^2 and 153.4 mm^2 and 151.8 mm^2 | 151.3 mm^2 | 140.6 mm^2 and 150.5 mm^2 and 139.8 mm^2 and 135.1 mm^2 | 141.5 mm^2 | 134.4 mm^2 and 142.7 mm^2 and 136.9 mm^2 and 128.1 mm^2 | 135.5 mm^2 | 131.1 mm^2 and 136.9 mm^2 and 121.9 mm^2 and 127.9 mm^2 | 129.5 mm^2 | 131.1 mm^2 and 136.9 mm^2 and 115.8 mm^2 and 126 mm^2 | 127.5 mm^2 | −13% | 8.00 ± 0.54 days | 0.51 ± 0.19 µM | 51.3 ± 18 µM | lifespan of tumor bearing mice compared to saline treated controls ([3]; N3 20 mg/kg i.p. daily for three days): decreased the lifespan; Lifespan increase [3, 10]: -1.19 days; anti-inflammatory effect (FIG. 3) ([2]; N5 50 mg/kg i.p., N3 100 mg/kg i.p., all drugs: at 12-48 hours): produced an anti-inflammatory effect; MST ± SD days (heart allograft survival) ([6]; B6 heart to Balb/c, N3 20 mg/kg QDx7 i.p., 20 mg/kg): 18.75±3.86 days; increase in lifespan ([6]; heart allograft, N3 20 mg/kg QDx7 i.p., vs untreated): 140%; Survival days (individual animals) ([6]; heart, N3 20 mg/kg, 20 mg/kg): 19 days and 24 days and 15 days and 17 days; Lifespan increase [1, 8]: -1.25 days; decreased the lifespan ([1]; N3 alone 20 mg/kg i.p. daily for three days, vs control): 12%
COC(=O)c1c(-c2cc(OC)c(OC)c(OC)c2)c(-c2cc(OC)c(OC)c(OC)c2)c(C(=O)OC)n1CCc1ccc(OC)cc1 [Ningalin N6, 1-[2-(4-Methoxy-phenyl)-ethyl]-3,4-bis-(3,4,5-trimethoxy-phenyl)-1H-pyrrole-2,5-dicarboxylic acid dimethyl ester] |  |  |  |  |  |  |  |  |  |  |  |  |  |  |  |  |  |  | 1.61 ± 0.31 µM | 70.2 ± 20.5 µM | Selectivity Ratio [A]/[B] ([4]; cytotoxicity IC50 / immunosuppressive IC50): 43.6
CC(=O)O[C@H]1C(=O)[C@@]2(C)[C@H]([C@H](OC(=O)c3ccccc3)[C@]3(O)C[C@H](OC(=O)[C@H](O)[C@@H](NC(=O)c4ccccc4)c4ccccc4)C(C)=C1C3(C)C)[C@]1(OC(C)=O)CO[C@@H]1C[C@@H]2O [Taxol, paclitaxel] |  |  |  |  |  |  |  |  |  |  |  |  |  |  |  |  | +4% | 9.56 ± 0.62 days |  |  | Lifespan increase (days) [3, 10]: +0.37 days; Log cell kill ([3]; Taxol 5.0 mg/kg iv alone or with N3 20 mg/kg ip): 0.28; Lifespan increase (%) [3, 12]: +4%; Lifespan increase (days) [3, 12]: +0.37 days; Median survival time (days ± SD) [3, 12]: 9.56 ± 0.88 days; Log cell kill ([3]; Taxol 10.0 mg/kg iv alone or with N3 20 mg/kg ip): 0.28
COc1ccc(CCN(C)CCCC(C#N)(c2ccc(OC)c(OC)c2)C(C)C)cc1OC (centres unmarked) [Verapamil, reference compound] |  |  |  |  |  |  |  |  |  |  |  |  |  |  |  |  |  |  |  |  | IC50 ([4]; Homo sapiens, Lymphocyte): 6.9 ± 1.01 µM
